Source: ChEMBL document CHEMBL1201862, “PubChem BioAssay data set” (2004)
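Following 48 hours of exposure in 96-well plates, responses at five concentrations were used to interpolate endpoints linearly. GI50 marks 50% less growth.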 The source made the active and inactive calls. Cut-off read from the data, not from the text of the source: active = GI50 up to about 1.1 µM and inactive = higher.

What was measured:
Assay in all cases: NCI anticancer screen, dose series, 48 h
HOP-62 = test system: HOP-62
RPMI-8226 = test system: RPMI-8226
MDA-MB-435 = test system: MDA-MB-435
HT-29 = test system: HT-29
SNB-19 = test system: SNB-19
SNB-75 = test system: SNB-75
COLO 205 = test system: COLO 205
M14 = test system: M14
SF-539 = test system: SF-539
OVCAR-5 = test system: OVCAR-5
786-0 = test system: 786-0
Hs-578T = test system: Hs-578T
MOLT-4 = test system: MOLT-4
ACHN = test system: ACHN
A498 = test system: A498
SF-295 = test system: SF-295
SK-MEL-2 = test system: SK-MEL-2
U-251 = test system: U-251
MDA-MB-231 = test system: MDA-MB-231
TK-10 = test system: TK-10

Measured: GI50

CC(C)(C)N1Cc2ccccc2/C(=C/Sc2ccccc2)C1=O
inactive: HOP-62 17.3 µM | RPMI-8226 5.82 µM | MDA-MB-435 7.38 µM | HT-29 17 µM | SNB-19 16 µM | SNB-75 16 µM | COLO 205 18.1 µM | M14 8.15 µM | SF-539 8.57 µM | OVCAR-5 19.4 µM | 786-0 10.7 µM | Hs-578T 16.7 µM | MOLT-4 3.21 µM | ACHN 17.9 µM | A498 20 µM | SF-295 17.4 µM | SK-MEL-2 15.2 µM | U-251 13.6 µM | MDA-MB-231 16.5 µM | TK-10 19 µM

Nc1nc(SCC(=O)c2ccccc2)nc2nc3c(c(-c4ccccc4)c12)CCCC3
inactive: HOP-62 41.9 µM | RPMI-8226 > 100 µM | MDA-MB-435 32.6 µM | HT-29 27.1 µM | SNB-19 49.9 µM | SNB-75 26.4 µM | COLO 205 > 10 µM | M14 19.2 µM | SF-539 > 100 µM | OVCAR-5 52 µM | 786-0 20.6 µM | Hs-578T 19.1 µM | MOLT-4 > 100 µM | ACHN 56.6 µM | A498 19.8 µM | SF-295 > 10 µM | SK-MEL-2 27.9 µM | U-251 32 µM | MDA-MB-231 19.1 µM | TK-10 > 100 µM

COc1ccc2c(c1OC)CN1CCc3cc4c(cc3C1C2)OCO4 (configuration not stated) [TETRAHYDROBERBERINE]
inactive: HOP-62 > 100 µM | RPMI-8226 > 100 µM | MDA-MB-435 > 100 µM | SNB-19 > 100 µM | SNB-75 > 100 µM | COLO 205 > 100 µM | M14 > 100 µM | SF-539 > 100 µM | OVCAR-5 > 100 µM | 786-0 > 100 µM | Hs-578T > 100 µM | MOLT-4 > 100 µM | ACHN > 100 µM | A498 > 100 µM | SF-295 > 100 µM | SK-MEL-2 > 100 µM | U-251 > 100 µM | MDA-MB-231 > 100 µM | TK-10 > 100 µM

N=C(CSS(=O)(=O)O)NC1CC2CCC1C2 (configuration not stated)
inactive: HOP-62 95.7 µM | RPMI-8226 > 100 µM | MDA-MB-435 95.5 µM | SNB-19 > 100 µM | SNB-75 > 100 µM | COLO 205 > 100 µM | M14 > 100 µM | SF-539 > 100 µM | 786-0 > 100 µM | Hs-578T > 100 µM | MOLT-4 78.2 µM | ACHN > 100 µM | A498 > 100 µM | SF-295 76.7 µM | SK-MEL-2 > 100 µM | U-251 57.8 µM | MDA-MB-231 > 100 µM | TK-10 > 100 µM

N/N=C1\C(OC(=O)Nc2cccc(Cl)c2)=Nc2ccccc21
inactive: HOP-62 2.75 µM | RPMI-8226 2.9 µM | MDA-MB-435 8.57 µM | HT-29 6.59 µM | SNB-19 7.13 µM | SNB-75 6.22 µM | COLO 205 6.95 µM | M14 7.01 µM | SF-539 17.1 µM | OVCAR-5 14 µM | 786-0 6.64 µM | Hs-578T 16.1 µM | MOLT-4 6.49 µM | ACHN 8 µM | A498 11.4 µM | SF-295 2.35 µM | SK-MEL-2 10.3 µM | U-251 6.9 µM | MDA-MB-231 12.1 µM | TK-10 12.1 µM

CO[C@@H]1[C@H](OC(=O)NC(=O)CCl)CC[C@]2(CO2)[C@H]1[C@@]1(C)O[C@@H]1CC=C(C)C [O-CHLOROACETYLCARBAMOYLFUMAGILLOL]
inactive: HOP-62 12.9 µM | RPMI-8226 6.93 µM | MDA-MB-435 11.7 µM | HT-29 5.66 µM | SNB-19 12 µM | SNB-75 7.96 µM | COLO 205 14.2 µM | M14 5.51 µM | SF-539 10.6 µM | OVCAR-5 17.3 µM | 786-0 12.6 µM | Hs-578T 19.9 µM | MOLT-4 6.56 µM | ACHN 14.1 µM | A498 17.2 µM | SF-295 5.65 µM | SK-MEL-2 13.6 µM | U-251 3.08 µM | MDA-MB-231 15.9 µM | TK-10 18.3 µM

O=C([O-])C(O)C(O)C(=O)O.[K+] (configuration not stated) [POTASSIUM HYDROGENTARTRATE]
inactive: HOP-62 > 100 µM | RPMI-8226 > 100 µM | MDA-MB-435 > 100 µM | HT-29 > 100 µM | SNB-19 > 100 µM | SNB-75 > 100 µM | COLO 205 > 100 µM | M14 > 100 µM | SF-539 > 100 µM | OVCAR-5 > 100 µM | 786-0 > 100 µM | Hs-578T > 100 µM | MOLT-4 > 100 µM | ACHN > 100 µM | A498 > 100 µM | SF-295 > 100 µM | SK-MEL-2 > 100 µM | U-251 > 100 µM | MDA-MB-231 > 100 µM | TK-10 > 100 µM

CCN(CC)Cc1cc(Nc2c3ccccc3nc3c4ccccc4n(C)c23)cc(CN(CC)CC)c1O
inactive: HOP-62 4.4 µM | RPMI-8226 2.1 µM | MDA-MB-435 3.01 µM | HT-29 3.41 µM | SNB-19 12.2 µM | SNB-75 12 µM | COLO 205 2.77 µM | M14 1.76 µM | SF-539 3.18 µM | OVCAR-5 6.84 µM | 786-0 3.48 µM | Hs-578T 6.22 µM | MOLT-4 1.63 µM | ACHN 5.43 µM | A498 6.07 µM | SF-295 5.35 µM | SK-MEL-2 2.67 µM | U-251 5.27 µM | MDA-MB-231 3.03 µM | TK-10 10.9 µM

O=C1CCC2(CC1CC[S+]([O-])c1ccccc1)OCCO2 (configuration not stated)
inactive: HOP-62 > 100 µM | RPMI-8226 > 100 µM | MDA-MB-435 > 100 µM | HT-29 > 100 µM | SNB-19 > 100 µM | SNB-75 > 100 µM | COLO 205 > 100 µM | M14 > 100 µM | SF-539 > 100 µM | OVCAR-5 > 100 µM | 786-0 > 100 µM | Hs-578T > 100 µM | MOLT-4 > 100 µM | ACHN > 100 µM | A498 > 100 µM | SF-295 > 100 µM | SK-MEL-2 > 100 µM | U-251 > 100 µM | MDA-MB-231 > 100 µM | TK-10 > 100 µM

c1ccc2c(c1)ccn1ccc3c4ccccc4nc-3c21
inactive: Hs-578T 1.23 µM | SK-MEL-2 1.17 µM | TK-10 1.16 µM
active: HOP-62 0.411 µM | RPMI-8226 0.195 µM | MDA-MB-435 0.362 µM | HT-29 0.11 µM | SNB-19 0.776 µM | SNB-75 0.647 µM | COLO 205 0.222 µM | M14 0.38 µM | SF-539 0.369 µM | OVCAR-5 0.475 µM | 786-0 0.178 µM | MOLT-4 0.0759 µM | ACHN 0.228 µM | A498 0.0527 µM | SF-295 0.426 µM | U-251 0.299 µM | MDA-MB-231 0.322 µM
